Experimental data: US20130296347A1, “Compositions and Methods for Prophylaxis and Treatment of Addictions” (Omeros Corporation, priority 2007, published 2013)
Where “and” joins values, the source holds several entries; their conditions need not be identical. Equal entries are not always repeated. Entries after “also recorded” stand apart in the source; their conditions may differ.

What was measured:
msP rats [1] = experiment: Acute voluntary ethanol intake, free choice 10% alcohol 24 hours a day; format: in vivo, rat; conditions: for ethanol intake, drug alone (post-hoc): low dose given at 12 hours and 1 hour before access, partner drugs at doses of the examples; for ethanol intake in a pilot study: low dose: fluoxetine 3.0, mirtazapine 5.0, topiramate 30.0, levetiracetam 100.0, gabapentin 60.0 mg/kg OS, ondansetron 1.0, antalarmin […] IP
Protocol: MsP rats were first trained to drink 10% (w/v) alcohol for 24 hours a day (free choice between water and ethanol). […] Before starting the treatment, rats were trained to gavage administration procedures for three days, during which they received vehicle (distilled water). […] Drinking experiments started at the beginning of the dark cycle. Alcohol, water and food intakes were monitored at 2, 8 and 24 hours after ethanol was made available.
Before starting the treatment, rats were trained to gavage and IP administration procedures for three days. Experiment was conducted in a between subject design (n=22). […] Drinking experiments started at the beginning of the dark cycle. Alcohol, water and food intakes were monitored at 2, 8 and 24 hours after ethanol was made available.
The drinking experiments were conducted at the beginning of the dark cycle, and alcohol, water and food intakes were monitored at 2, 8 and 24 hours after ethanol was made available.
(§1) MsP rats were first trained to drink 10% (w/v) alcohol for 24 hours a day (free choice between water and ethanol). […] Rats treated with drug vehicles served as a control. Before starting the treatment, rats were trained to gavage administration for three days, during which they received drugs vehicle (distilled water). […] Drinking experiments started at the beginning of the dark cycle. Alcohol, water, and food intakes were monitored at 2, 8 and 24 hours after ethanol was made available.
as §1, with “water” for “water,”
as §1, with “water” for “water,”
as §1, with “water” for “water,”
as §1, with “water” for “water,”
as §1, with “water” for “water,”

heavy tobacco smokers [2] = experiment: Pilot clinical study in heavy tobacco smokers; format: in vivo, human; set-up: overall smoking reduction / inhibition of smoking prior to dropping out: concentration or dose not given beside the values; conditions: for Percent inhibition of smoking: baseline data expressed as 100%: T = 0, smoking before entering the treatment; for Percent inhibition of smoking: baseline data expressed as 100% / Percent inhibition of smoking: individual patients; for craving score (visual analogic craving scale): over treatment
Protocol: Data were recorded for two months, during which patients were seen by the physician every other week. Patients were instructed to record in a personal logbook the number of cigarettes per day and the time of the day smoking occurred. At the end of the study, the logbooks were returned to the clinical personnel who analyzed the data. […] During the first month of treatment, every two weeks, ACTH and cortisol levels were also monitored to evaluate HPA activation before and during treatment.

heavy tobacco smokers [3] = experiment: Pilot clinical study in heavy tobacco smokers; format: in vivo, human
CD mice [4] = experiment: Tail-flick test, morphine-induced analgesic tolerance; format: in vivo, mouse; conditions: morphine 30 mg/kg IP twice a day
Protocol: All procedures were conducted in adherence to the European Community Council Directive for Care and Use of Laboratory Animals.
Mice were divided into 6 groups. Group 1 (n=8) received drug vehicles (veh/veh). […] Animals were treated twice daily (between 9:00 and 10:00 a.m. and 9:00 and 10:00 p.m.).
Morphine hydrochloride was purchased from Salars (Milano, Italy). Morphine (30 mg/kg) was dissolved in NaCl […] and was injected intraperitoneally (IP) twice a day at the indicated doses in a volume of 0.2 ml per mice. […] It was dissolved in distilled water and was administered per o.s. at the doses of 10 mg/kg and 30 mg/kg in a volume of 0.6 ml per mice.
Two different tests were used to monitor analgesic responses. The tail-flick test was performed 45 min after the morning injection of morphine, and the tail-immersion test was performed 45 min after the evening injection of morphine.
For the tail-flick test, each mouse was gently restrained in a soft tissue pocket, and the tail (1 cm from the tip) was exposed to a hot light beam. Latency for tail-flick was measured with a 6 seconds cut-off time. For the tail-immersion test, each mouse was restrained in a soft tissue pocket, and the distal half of the tail dipped into a water bath set at 52 C°. Latency for removing the tail from the hot water was measured with a 10 seconds cut-off time.

CD mice [5] = conditions: morphine 30 mg/kg IP twice a day
Protocol: Morphine hydrochloride was purchased from Salars (Milano, Italy). Morphine (30 mg/kg) was dissolved in NaCl 9% and was injected intraperitoneally (IP) twice a day at the indicated doses in a volume of 0.2 ml per mice.

Long Evans rats = experiment: Yohimbine-induced reinstatement of nicotine seeking; format: in vivo, rat; conditions: yohimbine 2.0 mg/kg/ml; p<0.001
Protocol: Stress and anxiety are major factors in resuming nicotine use in former abstinent users. […] Reinstatement experiments and relative drug treatments were performed every third day. Between reinstatements, extinction baseline was re-established.

[6] = test system: Marchigian Sardinian alcohol-preferring (msP) rats; experiment: Acute voluntary ethanol intake, alcohol access restricted to 2 hours/day; format: in vivo, rat
Protocol: (§2) At the beginning of the experiments, msP rats were allowed free choice between water and 10% (v/v) alcohol 24 h/day for at least 15 days. The fluids were offered in graduated drinking tubes equipped with metallic drinking spouts. The position (to the right or left) of alcohol and water drinking tubes was changed daily to avoid the development of side preference. Water and food were available ad libitum, while alcohol access was either restricted to 2 hours/day (Examples 1 and 2) or was available 24 hours/day (Examples 3 and 4). Alcohol, water and food intakes were measured.
. After acquisition of a stable baseline of ethanol intake (6-8 g/kg bw; daily), alcohol access was restricted to 2 hours a day at the beginning of the dark phase. Water and food were freely available.
(§3) […]. Before starting the treatment, rats were trained to gavage administration procedures for three days, during which they received vehicle (distilled water).
Treatments were carried out at intervals of at least three days. […] Drinking experiments were conducted right at the beginning of the dark cycle. Alcohol, water and food intakes were monitored at 30, 60, 90 and 120 minutes after ethanol was made available.
The msP rats (n=8) were prepared for the study as described in Example 1. After acquisition of a stable baseline of ethanol intake, alcohol access was restricted to 2 hours a day at the beginning of the dark phase. Water and food were freely available. […]. The experiment was conducted using a within subject counterbalanced Latine square design where each animal received all drug doses.
These experiments were conducted at the beginning of the dark cycle and alcohol, and water and food intakes were monitored at 30, 60, 90 and 120 minutes after ethanol was made available.

[7] = test system: Marchigian Sardinian alcohol-preferring (msP) rats; experiment: Subchronic (7 days) voluntary ethanol intake, 10% alcohol available 24 hours/day; format: in vivo, rat; conditions: 7 days; naltrexone […] IP alone or with pioglitazone 10.0 or 30.0 mg/kg OS
Protocol: as §2, §3
Alcohol, water and food intakes were monitored at 2, 8 and 24 hours. Fluids and food intakes were monitored for three additional days after the end of the drug treatment period.
[…]. According to a between-subject design, four groups of msP rats (N=9/group) were prepared as described in Example 3. […] […]. Alcohol, water and food intakes were monitored at 2, 8 and 24 hours. Fluids and food intakes were monitored for three additional days after the end of the drug treatment period.

msP rats [8] = experiment: Cue-induced reinstatement of alcohol seeking; format: in vivo, rat; conditions: naltrexone 0.25 and 1.0 mg/kg 1 hour before test
Protocol: Cue-induced reinstatement of alcohol-seeking behaviour experimental procedures consisted of three phases: (1) conditioning phase; (2) extinction phase; and (3) reinstatement phase, as described below.
For the conditioning phase, at the completion of the fading procedure (see above), in 30 min daily sessions, animals were trained to discriminate between 10% alcohol and water. Beginning with self-administration training at the 10% alcohol concentration, discriminative stimuli (SD) predictive of alcohol versus water availability were presented during the alcohol and water self-administration sessions, respectively. The discriminative stimulus for alcohol consisted of the odour of an orange extract (S^+) whereas water availability (i.e. no reward) was signalled by an anise extract (S^−). The olfactory stimuli were generated by depositing six to eight drops of the respective extract into the bedding of the operant chamber. In addition, each lever-press resulting in delivery of alcohol was paired with illumination of the chamber's house light for 5 sec (CS^+). The corresponding cue during water sessions was a 5 second tone (70 dB) (CS). Concurrently with the presentation of these stimuli, a 5 sec. time-out period was in effect, during which responses were recorded but not reinforced. The olfactory stimuli serving as S^+ or S^− for alcohol availability were introduced one minute before extension of the levers and remained present throughout the 30-min. sessions. The bedding of the chamber was changed and bedding trays were cleaned between sessions. During the first three days of the conditioning phase, the rats were given alcohol sessions only. Subsequently, alcohol and water sessions were conducted in random order across training days, with the constraint that all rats received a total of 10 alcohol and 10 water sessions.
For the extinction phase, after the last conditioning day, rats were subjected to 30-min extinction sessions for 15 consecutive days. During this phase, sessions began by extension of the levers without presentation of the SD. […]

alcoholic patients = experiment: Observational study of alcohol abuse in human patients; format: in vivo
Excerpt: ACT)+psychotherapy. […] Patients were instructed to record in a personal logbook the number of drinks per day and the time of the day drinks occurred. At the end of the study, the logbooks were returned to the clinical personnel who analyzed the data. […] In addition, biochemical parameters to ascertain alcohol detoxification and to measure recovery of physiological functions (i.e., hepatic function) were monitored monthly. Hematological parameters measured included: mean corpuscular volume (MCV); gamma-GT; aspartate aminotransferase (AST); alanine aminotransferase (ALT); and carbohydrate-deficient transferring (CDT). MCV and CDT are biomarkers for ethanol consumption, and GGT, ALT and AST are biomarkers for hepatic functionality. Data were analyzed by analysis of variance followed by Newman-Keuls post hoc tests when appropriate.

msP rats [9] = experiment: Yohimbine-induced (stress) reinstatement of alcohol seeking; conditions: naltrexone 0.25 and 1.0 mg/kg IP 1 hour before test
Excerpt: Stress-induced reinstatement of alcohol-seeking experimental procedures consisted of three phases: (1) training phase; (2) extinction phase; and (3) reinstatement phase, as described below.
For the training phase, after completion of the fading procedure, msP rats were trained to self-administer 10% (v/v) alcohol for 15 days in 30-min daily sessions under a FR1 schedule of reinforcement. During the infusion, a stimulus house light was turned on for 5 s (time out; TO).
For the extinction phase, after the last alcohol self-administration session, animals were subjected to 30-min extinction sessions for 15 consecutive days.
The day after the last extinction session, rats were subjected to the reinstatement test.
Animals received all drug treatments according to a counterbalance Latin square design. A 3-day interval, during which animals were subjected to extinction sessions, was allowed between drug tests.

[10] = pioglitazone 30 mg/day or naltrexone 50 mg/day + psychotherapy

Structure (SMILES): CNCCC(Oc1ccc(C(F)(F)F)cc1)c1ccccc1 (centres unmarked) [fluoxetine]
- ethanol intake, drug alone (post-hoc) (msP rats [1]; pioglitazone 10 mg/kg OS): did not significantly modify
- ethanol intake in a pilot study (msP rats [1]): did not reduce ethanol intake

Structure (SMILES): CC[C@@H](C(N)=O)N1CCCC1=O [levetiracetam]
- ethanol intake, drug alone (post-hoc) (msP rats [1]; pioglitazone 10 mg/kg OS): did not significantly modify
- ethanol intake in a pilot study (msP rats [1]): did not reduce ethanol intake

Structure (SMILES): CC(NC(C)(C)C)C(=O)c1cccc(Cl)c1 (centres unmarked) [bupropione]
- Percent inhibition of smoking: baseline data expressed as 100% (heavy tobacco smokers [2]): 100%
- Percent inhibition of smoking (heavy tobacco smokers [2]; T = 2 weeks of treatment, Pio 15-30 mg/daily, Var 0.5 to 2.0 mg/day): 100%
- Percent inhibition of smoking (heavy tobacco smokers [2]; T = 4 weeks, listed as Bup): 20% and 18% and 15%
- Percent inhibition of smoking (heavy tobacco smokers [2]; T = 6 weeks, listed as Bup): 28% and 20% and 21%
- Percent inhibition of smoking (heavy tobacco smokers [2]; T = 8 weeks): 34%
- inhibition of smoking prior to dropping out (heavy tobacco smokers [2]; bupropione patient who dropped out after four weeks): 20%
- craving score (visual analogic craving scale) (heavy tobacco smokers [2]): less effective
- Percent inhibition of smoking (heavy tobacco smokers [3]; T = 10 weeks, individual patients, listed as Bup): 40% and 45%
- smoking reduced (heavy tobacco smokers [3]; two bupropione patients after 10 weeks of drug administration): about 40%

Structure (SMILES): Cc1nccn1CC1CCc2c(c3ccccc3n2C)C1=O (centres unmarked) [ondansetron]
- ethanol intake, drug alone (post-hoc) (msP rats [1]; pioglitazone 10 mg/kg OS): did not significantly modify
- ethanol intake in a pilot study (msP rats [1]): did not reduce ethanol intake

Structure (SMILES): CCCCN(CC)c1nc(C)nc2c1c(C)c(C)n2-c1c(C)cc(C)cc1C [antalarmin]
- ethanol intake, drug alone (post-hoc) (msP rats [1]; pioglitazone 10 mg/kg OS): did not significantly modify
- ethanol intake in a pilot study (msP rats [1]): modestly reduced

Structure (SMILES): CN1CCN2c3ncccc3Cc3ccccc3C2C1 (centres unmarked) [mirtazapine]
- ethanol intake, drug alone (post-hoc) (msP rats [1]; pioglitazone 10 mg/kg OS): did not significantly modify
- ethanol intake in a pilot study (msP rats [1]): did not reduce ethanol intake

Structure (SMILES): c1cnc2cc3c(cc2n1)[C@@H]1CNC[C@H]3C1 [varenicline]
- Percent inhibition of smoking: baseline data expressed as 100% (heavy tobacco smokers [2]): 100%
- craving score (visual analogic craving scale) (heavy tobacco smokers [2]): highest reduction
- STAI anxiety score (heavy tobacco smokers [2]; over treatment weeks): significantly reduced
- weekly smoked cigarettes compared to bupropione (post hoc) (heavy tobacco smokers [2]; p<0.05): significant difference
- subjects reaching complete abstinence (heavy tobacco smokers [2]; pioglitazone 4 patients, varenicline 3 patients): one
- overall smoking reduction (heavy tobacco smokers [2]; three participants receiving varenicline): 95%

Structure (SMILES): O=C(Nc1ccccc1)c1cc([N+](=O)[O-])ccc1Cl [GW9662]
- ethanol intake (msP rats [1]; GW9662 5 μg/rat ICV alone): did not significantly affect
- pioglitazone-induced reduction of ethanol intake (msP rats [1]; GW9662 1.0 and 5.0 mg/kg IP with pioglitazone 30 mg/kg OS): blocked the effect of pioglitazone in a dose related manner
- ethanol drinking (msP rats [1]; GW9662 alone, 1.0 and 5.0 mg/kg IP): did not modify

Structure (SMILES): CN1CC[C@]23c4c5ccc(O)c4O[C@H]2[C@@H](O)C=C[C@H]3[C@H]1C5 [morphine]
- time to tail-flick on test days 7 and 9 (CD mice [4]): non significant difference from controls
- time to tail-flick on day 1, 3 and 5 (CD mice [4]; p<0.01): significantly increased
- tail-immersion analgesic effect on test day 9 (CD mice [5]): marginally significant
- tail-immersion latency on day 1, 3, 5, and 7 (CD mice [5]; p<0.01): significantly increased

Structure (SMILES): COC(=O)[C@@H]1[C@H]2C[C@H]3c4[nH]c5ccccc5c4CCN3C[C@@H]2CC[C@@H]1O [yohimbine]
- reinstatement of responding compared to extinction (Long Evans rats): significant reinstatement

Structure (SMILES): NCC1(CC(=O)O)CCCCC1 [gabapentin]
- ethanol intake, drug alone (post-hoc) (msP rats [1]; pioglitazone 10 mg/kg OS): did not significantly modify
- ethanol intake in a pilot study (msP rats [1]): did not reduce ethanol intake

Structure (SMILES): CC1(C)O[C@@H]2[C@@H](CO[C@@]3(COS(N)(=O)=O)OC(C)(C)O[C@@H]23)O1 [topiramate]
- ethanol intake, drug alone (post-hoc) (msP rats [1]; pioglitazone 10 mg/kg OS): did not significantly modify
- ethanol intake in a pilot study (msP rats [1]): did not reduce ethanol intake
- ethanol intake at 2 hours, drug alone (msP rats [1]; pioglitazone 10 mg/kg OS, topiramate 30.0 mg/kg OS, p<0.05): significant reduction

Structure (SMILES): O=C1CC[C@@]2(O)[C@H]3Cc4ccc(O)c5c4[C@@]2(CCN3CC2CC2)[C@H]1O5 [naltrexone]
- ethanol intake at 120 minutes ([6]; naltrexone […] IP alone or with pioglitazone 10 mg/kg OS): did not show significant effects
- ethanol intake at 30, 60, and 90 minutes ([6]; naltrexone […] IP alone or with pioglitazone 10.0 or 30.0 mg/kg OS): significantly reduced
- ethanol intake at 8 and 24 hours [7]: not at 8 and 24 hours
- ethanol intake at 2 hours [7]: significantly reduced
- voluntary ethanol intake, overall [7]: significantly reduced
- cue-induced (conditioned) reinstatement of alcohol-seeking (msP rats [8]): significantly reduced
- hepatic parameters (GGT, ALT, AST) (alcoholic patients; 2-month treatment): ameliorated
- Depression Scale M.A.D.R.S (mean score values) (alcoholic patients; T = 1.2): 18
- Depression Scale M.A.D.R.S (mean score values) (alcoholic patients; T = 1.3): 16
- Depression Scale M.A.D.R.S (mean score values) (alcoholic patients; T = 1.4): 17
- Depression Scale M.A.D.R.S (mean score values) (alcoholic patients; T = 2.1): 17
- Depression Scale M.A.D.R.S (mean score values) (alcoholic patients; T = 2.2): 15
- effect on daily drinks, comparison of drugs (alcoholic patients; first two weeks of treatment, P<0.05): more effective than pioglitazone
- daily ethanol intake (number of daily drinks) (alcoholic patients; [10]): significantly reduced
- number of abstinence days (alcoholic patients; [10]): increased
- OCDS versus controls (alcoholic patients; post hoc, P<0.001): statistically significant difference
- all five blood biomarkers versus controls (psychotherapy alone) (alcoholic patients; post hoc, P<0.001): statistical difference
- yohimbine-induced reinstatement of alcohol seeking (msP rats [9]): did not significantly reduce; also recorded: not modified
